Article PMC6804080, “Benzoxaboroles—Novel Autotaxin Inhibitors” (Molecules, 2019)
Converted amounts (≈) assume the structure as drawn. “And” between values parts separate entries of the source, which are not always exact repeats. Equal values may be shown once.

Tests used:
Autotaxin (ATX) = molecular target: T1, Autotaxin (ATX) (Homo sapiens, UniProt Q13822); test: biochemical choline detection assay for ATX inhibition, LysoPC substrate; conditions: for IC50: mean standard deviation from duplicate experiments; for ATX inhibition, range of activity: in words
T1 construct: we added 10 μL of recombinant ATX (2 ng/mL) in a Tris–HCl buffer
Experimental: All 21 new benzoxaboroles derivatives prepared herein were evaluated for ATX inhibition in vitro using a biochemical choline detection assay, combining elements of assays already described in the literature.
[…] Mother plates with serial dilutions of compounds in pure DMSO were prepared from 10 mM DMSO stock solutions. Storplate-384-deep-well-V plates (Perkin Elmer) were also used for mother plate preparation. Compounds were diluted in a DMSO in a ratio of 1:3. An aliquot of 200 nL of compound solution was transferred from the mother plate to the test plate with a Mosquito nanoliter liquid handling system (TTP labtech). The assay was performed in Spectra-Plate-384 TC, transparent, (Perkin Elmer, Cat#6007658) using a 20 µL assay volume. The total final percentage of DMSO in the test media was 1%. Compounds were tested at 11 consecutive three-fold dilutions starting from 50 µM (final concentrations) in duplicate, covering range of 0.0008–50 μM to determine IC50 values. […] After dispensing of compounds directly to the dry plate, we added 10 μL of recombinant ATX (2 ng/mL) in a Tris–HCl buffer (140 mM NaCl, 1mM MgCl2, 5 mM KCl, 3 mM CaCl2, 1 mg/ml bovin serum albumin (BSA, fatty acid free) and 100 mM Tris–HCl, pH 9). […] The above-described solution with dimethyl sulfoxide but without the test compound was used as a control. LysoPC without ATX was used as a control for the autohydrolysis of LysoPC. After 1.5 h of incubation, 20 μL of stop solution and developer was added {Choline oxidase (1.2 U/mL), Peroxidase (1.2 U/mL), TOOS (2.7 mM), 4-Aminoantipyrine (2.7 mM), and EDTA (50 mM)} to the reaction mixture, and absorbance was measured after 30 min of incubation. The absorbance was measured by using Perkin-Elmer EnVision plate reader (λ = 555 nm). Data were analyzed using GraphPad Prism software. The calculation of IC50 data, curves and quality control (QC) analysis was made by using Excel tools and GraphPadPrism software. Briefly, individual concentration–effect curves were generated by plotting the logarithm of the tested concentration of tested compounds (X) vs. corresponding percentage inhibition values (Y) using a least squares (ordinary) fit. […] QC criteria parameters (Z,’ S:B, ΔmP) were checked for every plate.

[1] = Chrom logD determination by gradient HPLC (CHI); format: physicochemical; conditions: pH 7.4, Luna C18 column; for chromatographic logD: reversed-phase HPLC, Phenomenex Luna C18 column
Experimental: clogP values were calculated for all compounds using the Percepta software. Chrom logD was determined experimentally using a procedure described in the supplementary data. Furthermore, the correlation between calculated clogP values and experimentally determined Chrom log D values were explored for molecules containing boron functional groups such as boronic acids and benzoxaboroles.
Chrom logD values were determined from the following equation: Chrom logD = 0.0857 × CHI − 2 [39]. Chromatographic hydrophobic index (CHI) values were determined from the gradient retention times (RT). These values approximately corresponded to the volume percentage of organic component in the mobile phase when the compound elutes. CHI values were determined at pH 7.4. Chromatograms were obtained using on Agilent 1100 Series liquid chromatography system with an HPLC diode-array detector (DAD) coupled with a Micromass Quattro micro atmosphere pressure ionization (API) mass spectrometer. The column used for analyses was Phenomenex Luna C18 (50 × 3 mm, 5 µm, 100 Å). The column was maintained at 25 °C. The flow rate was 1.0 mL/min. The mobile phase was composed of 50 mM ammonium acetate in water at pH 7.4 (solvent A) and acetonitrile (solvent B). The solvent gradient condition was initially 0.5% B, and then it increased linearly to 100% B over 3.0 min, remaining at 100% B for 0.5 min, then decreasing linearly to 0% B over 0.2 min followed by an equilibration period of 1.3 min prior to the next injection. The total experimental duration was 5 min. Injection volume was 2.0 µl. Samples temperature was maintained at 15 °C in the autosampler chamber. A group of ten standard compounds having different CHI values was used for calibration of RP-HPLC [40].

[2] = kinetic solubility, turbidimetric method; format: physicochemical; conditions: for solubility kinetic at 1 h: 37 °C, pH 7.4, aqueous buffer, kinetic from dmso stock, Solubility (kinetic solubility range)
Experimental: Turbidimetric solubility allows for a rapid determination of kinetic solubility by using small amounts of the test compound. Assay controls were α-naphtoflavone (low solubility) and sulfaphenazole (expected solubility >100µM). DMSO stock solutions (10 mM) of each compound were first serially diluted 1 in 3 in DMSO and then spiked into an aqueous buffer (100 mM PBS), resulting in 5 following final concentration: 100, 30, 10, 3 and 1 µM (each concentration was tested in duplicate). […] Compound samples were compared to a solvent control in an aqueous buffer (DMSO 1% final concentration), and a significant increase of sample absorbance was considered to have occurred when the absorbance reached a 3-fold standard deviation of the average DMSO absorbance. The calculation of solubility range data was made by Excel tool software. Results are expressed as an estimated solubility range.

[3] = in vitro plasma stability, rat plasma; format: in vitro ADME; conditions: after 4 h
Experimental: (§1) The in vitro plasma stability of the test compounds was studied in human and rat plasma with propranolol, benflorex, and eucatropine as control substances. All compounds at final concentrations of 5 μM (0.5% DMSO) were incubated in a phosphate buffer (50 mM, pH 7.4) for 4 h at 37 °C together with plasma. Aliquots were taken at different time points (0, 30, 120 min and 4 h), followed by reaction termination by the addition of CH3CN:CH3OH 2:1 v/v., which contained diclofenac and warfarin as internal standards (IS). Samples were then centrifuged (at 1600 rpm at 4 °C for 30 min), and the resulting supernatants were subjected to LC/MS/MS analysis. Results are expressed as % remaining.

[4] = in vitro plasma stability, human plasma; format: in vitro ADME; conditions: after 4 h
Experimental: as §1

[5] = metabolic stability in rat liver microsomes; format: in vitro ADME
Experimental: (§2) Metabolic stability was assessed in rat and human liver microsomes, with testosterone and propranolol as positive controls. All compounds, at a final concentration of 1 μM (0.03% DMSO), were incubated in a phosphate buffer (50 mM, pH 7.4) for 60 min at 37 °C, together with liver microsomes in the absence and presence of NADPH generating system (nicotinamide adenine dinucleotide phosphate (NADP, 2 mM), glucose-6-phosphate (20 mM), glucose-6-phosphate dehydrogenase (6U) and magnesium chloride (2 mM)). Aliquots were taken at different time points (0, 10, 20, 30, 45 and 60 min), followed by reaction termination by addition of CH3CN:CH3OH 2:1 v/v, containing diclofenac as internal standard (IS). Samples were then centrifuged (at 2000 rpm at 4 °C for 30 min), and resulting supernatants were subjected to LC/MS/MS analysis. The in vitro half-life was calculated in GraphPadPrism software from % remaining vs. time regression using non-linear regression fit. In vitro intrinsic clearance, expressed as mL/min/g liver, was determined from in vitro half-life and normalized for the protein concentration in the incubation mixture, assuming a 52.5 mg/g liver.

[6] = metabolic stability in human liver microsomes; format: in vitro ADME
Experimental: as §2

[7] = plasma protein binding, equilibrium dialysis, rat plasma; format: in vitro ADME; conditions: pH 7.4, rat plasma, read-out: PPB: fraction bound, rat (converted)
Experimental: (§3) Plasma protein binding was measured using the equilibrium dialysis technique. Positive controls included in this assay were: Acebutolol (low binding) and nicardipine (very high binding). The assay was performed in a 96-well Teflon dialysis unit, where each well consisted of two chambers separated by a dialysis membrane. Plasma (human and rat, commercially obtained from Seralab) spiked with each compound (final concentration: 5 µM, 0.5% DMSO) were added to one chamber, and a blank buffer solution (60 mM Na2HPO4/14 mM KH2PO4/70 mM NaCl; pH 7.4) was added to the other side of the well. Each compound was analyzed in duplicate, for 4 h at 37 °C. After 4 h, both the plasma (free and bound fraction) and buffer (only free fraction) side of the well were sampled, matrix matched, then precipitated with a STOP solution (CH3CN:CH3OH 2:1 v/v, containing diclofenac as internal standard), and centrifuged at 2000 rpm for 30 min (+4 °C). The resulting supernatants were analyzed by LC-MS/MS. The fraction bound was calculated as the concentration difference (analyte vs. internal standard peak area ratio) in the plasma and buffer sides divided by the total concentration in the plasma side. Sampling was also performed from spiked plasma at t = 0 min in order to determine recovery, i.e., % of compound detected at t = 4 h in both the plasma and buffer chambers divided by the compound detected at t = 0 min.

[8] = plasma protein binding, equilibrium dialysis, human plasma; format: in vitro ADME; conditions: for fraction unbound at 4 h, 5 µM: pH 7.4, read-out: PPB: fraction bound, human (converted)
Experimental: as §3

[9] = choline release assay using as a substrate

Row | SMILES | IC50 (Autotaxin (ATX); [9]) [µM] | ATX inhibition, range of activity (Autotaxin (ATX)) | chromatographic logD [1] | solubility kinetic at 1 h [2] [µM] | PS (plasma stability), rat [3] | PS (plasma stability), human [4] [%remaining] | LMS: predicted in vivo hepatic clearance, rat [5] [%LBF] | LMS: predicted in vivo hepatic clearance, human [6] [%LBF] | fraction unbound at 4 h, 5 µM [7] | fraction unbound at 4 h, 5 µM [8] | IC50 (Autotaxin (ATX); choline release assay using LPC C16:0 as a substrate) [µM] | Chrom logD [1] | Solubility (kinetic solubility range) ([2]; turbidimetric, PBS pH 7.4, after 1h) [µM] | PPB: fraction bound, human [8]
1 | O=C(OCc1cc(Cl)cc(Cl)c1)N1CCN(C2CCN(C(=O)c3ccc4c(c3)B(O)OC4)CC2)CC1 [Compound 34] | – | nanomolar range | – | – | 61.6 %remaining | 70.6 | 77 | 89 | – | – | 0.92 ± 0.82 | 5.49 | >100 | NA ^e/99.2%
2 | O=C(OCc1cc(Cl)cc(Cl)c1)N1CCN(C2CCN(C(=O)c3ccc4c(c3)COB4O)CC2)CC1 [Compound 35, (3,5-dichlorophenyl)methyl 4-[1-(1-hydroxy-3H-2,1-benzoxaborole-5-carbonyl)-4-piperidyl]piperazine-1-carboxylate] | 1.8 ± 1.75 | – | 4.58 | > 100 | 63.0 %remaining | 59.2 | 86 | 89 | – | 0.017 | – | – | – | –
3 | O=C(OCc1cc(Cl)cc(Cl)c1)N1CCN(C2CN(C(=O)c3ccc4c(c3)B(O)OC4)C2)CC1 [Compound 37, (3,5-dichlorophenyl)methyl 4-[1-(1-hydroxy-3H-2,1-benzoxaborole-6-carbonyl)azetidin-3-yl]piperazine-1-carboxylate] | 0.13 ± 0.12 | nanomolar range | 4.58 | 30 to 100 (≈ 15.1 to 50.4 µg/mL) | 71.2 %remaining and 72.2 %remaining | 79.1 | 62 | 85 | 0.016 | 0.021 | – | – | – | –

Continued by falling IC50 (Autotaxin (ATX); [9]), values first:

Row | IC50 (Autotaxin (ATX); [9]) [µM] | ATX inhibition, range of activity (Autotaxin (ATX)) | chromatographic logD [1] | solubility kinetic at 1 h [2] [µM] | PS (plasma stability), rat [3] | PS (plasma stability), human [4] [%remaining] | LMS: predicted in vivo hepatic clearance, rat [5] [%LBF] | LMS: predicted in vivo hepatic clearance, human [6] [%LBF] | fraction unbound at 4 h, 5 µM [7] | fraction unbound at 4 h, 5 µM [8] | IC50 (Autotaxin (ATX); choline release assay using LPC C16:0 as a substrate) [µM] | Chrom logD [1] | Solubility (kinetic solubility range) ([2]; turbidimetric, PBS pH 7.4, after 1h) [µM] | PPB: fraction bound, human [8] | SMILES
4 | 7.5 ± 5.6 | – | 4.63 | > 100 | 67.9 %remaining | 71.6 | 86 | 85 | – | 0.022 | – | – | – | – | O=C(OCc1cc(Cl)cc(Cl)c1)N1CCN(C2CCN(C(=O)c3cccc4c3B(O)OC4)C2)CC1 (stereo not drawn) [Compound 31, (3,5-dichlorophenyl)methyl 4-[1-(1-hydroxy-3H-2,1-benzoxaborole-7-carbonyl)pyrrolidin-3-yl]piperazine-1-carboxylate]
5 | 2.7 ± 2.11 | – | 4.13 | > 100 | 59.5 %remaining | 79.2 | 80 | 85 | 0.039 | 0.022 | – | – | – | – | Cc1cc(C)cc(COC(=O)N2CCN(C3CCN(C(=O)c4ccc5c(c4)B(O)OC5)C3)CC2)c1 (stereo not drawn) [Compound 43, (3,5-dimethylphenyl)methyl 4-[1-(1-hydroxy-3H-2,1-benzoxaborole-6-carbonyl)pyrrolidin-3-yl]piperazine-1-carboxylate]
6 | 0.18 ± 0.04 | nanomolar range | 4.52 | > 100 | 64.5 %remaining | 66.5 | 86 | 82 | 0.012 | 0.016 | – | – | – | – | O=C(OCc1cc(Cl)cc(Cl)c1)N1CCN(C2CCN(C(=O)c3ccc4c(c3)B(O)OC4)C2)CC1 (stereo not drawn) [Compound 30, (3,5-dichlorophenyl)methyl 4-[1-(1-hydroxy-3H-2,1-benzoxaborole-6-carbonyl)pyrrolidin-3-yl]piperazine-1-carboxylate]
